Laboratory results taken from patent US20230108906A1, “SUBSTITUTED BICYCLIC AND TRICYCLIC UREAS AND AMIDES, ANALOGUES THEREOF, AND METHODS USING SAME” (Arbutus Biopharma Corporation, priority 2019, published 2023).

The molecules below were run on HBV rcDNA in HepDE19 cells (assay: HepDE19 assay with bDNA quantitation of HBV rcDNA). Conditions: Hepatitis B virus, HepDE19, 168 h, inhibition of rcDNA formation in HepDE19 cells (HepG2 derived), Tet-free medium, 7 day incubation, Quantigene 2.0 bDNA readout, top concentration 25 μM; read-out: DE-19bDNA EC50.
Assay type: cell-based, hepatitis B virus (HBV)
Method: HepDE19 Assay with bDNA Quantitation of HBV rcDNA:
HepDE19 cell culture system is a HepG2 (human hepatocarcinoma) derived cell line that supports HBV DNA replication and cccDNA formation in a tetracycline (Tet)-regulated manner and produces HBV rcDNA and a detectable reporter molecule dependent on the production and maintenance of cccDNA (Guo, et al., 2007, J. Virol. 81:12472-12484).
HepDE19 (50,000 cells/well) were plated in 96-well collagen-coated tissue-culture treated microtiter plates in DMEM/F12 medium supplemented with 10% fetal bovine serum, 1% penicillin-streptomycin and 1 μg/mL tetracycline and incubated in a humidified incubator at 37° C. and 5% CO2 overnight. Next day, the cells were switched to fresh medium without tetracycline and incubated for 4 hours at 37° C. and 5% CO2. The cells were treated with fresh Tet-free medium with compounds at concentrations starting at 25 μM and a serial, […], 8-point, titration series in duplicate. The final DMSO concentration in the assay was 0.5%. The plates were incubated for 7 days in a humidified incubator at 37° C. and 5% CO2. Following a 7 day-incubation, the level of rcDNA present in the inhibitor-treated wells was measured using a Quantigene 2.0 bDNA assay kit (Affymetrix, Santa Clara, Calif.) with HBV specific custom probe set and manufacturers instructions. Concurrently, the effect of compounds on cell viability was assessed using replicate plates, plated at a density of 5,000 cells/well and incubated for 4 days, to determine the ATP content as a measure of cell viability using the cell-titer glo reagent (CTG; Promega Corporation, Madison, Wis.) as per manufacturer's instructions. The plates were read using a Victor luminescence plate reader (PerkinElmer Model 1420 Multilabel counter) and the relative luminescence units (RLU) data generated from each well was calculated as % inhibition of the untreated control wells and analyzed using XL-Fit module in Microsoft Excel to determine EC50 and EC90 (bDNA) and CC50 (CTG) values using a 4-parameter curve fitting algorithm.
Representative compounds of the disclosure were tested for their abilities to inhibit formation of relaxed circular DNA (rcDNA) in a HepDE19 assay, as described elsewhere herein.
`N#Cc1cc(NC(=O)N[C@@H]2COCc3[nH]c(=O)c4cc(F)c(F)cc4c32)ccc1F` (single isomer, unassigned) [Compound 135] was tested, and the EC50 was 0.05 µM.
`CN(C(=O)Nc1ccc(Cl)c(F)c1)[C@@H]1COCc2[nH]c(=O)c3cc(F)c(F)cc3c21` [Compound 141, (S)-3-(4-Chloro-3-fluorophenyl)-1-(8,9-difluoro-6-oxo-1,4,5,6-tetrahydro-2H-pyrano[3,4-c]isoquinolin-1-yl)-1-methylurea] showed an EC50 of 0.02 µM.
Work on `CC(C)CN(C(=O)Nc1ccc(F)c(Cl)c1)C1CCCc2[nH]c(=O)cc(C(F)(F)F)c21` (centres unmarked) [Compound 1, 3-(3-Chloro-4-fluorophenyl)-1-isobutyl-1-(2-oxo-4-(trifluoromethyl)-1,2,5,6,7,8-hexahydroquinolin-5-yl)urea] yielded an EC50 of 0.52 µM.
In the case of `CN(C(=O)Nc1ccc(F)c(Cl)c1)C1CCCc2[nH]c(=O)c3cc(F)cc(F)c3c21` (centres unmarked) [Compound 20, 3-(3-Chloro-4-fluorophenyl)-1-(8,10-difluoro-6-oxo-1,2,3,4,5,6-hexahydrophenanthridin-1-yl)-1-methylurea], the EC50 is reported as 0.51 µM.
`CN(C(=O)Nc1ccc(F)cc1)C1CCCc2[nH]c(=O)c3cc(F)c(F)cc3c21` (centres unmarked) [Compound 19, 1-(8,9-Difluoro-6-oxo-1,2,3,4,5,6-hexahydrophenanthridin-1-yl)-3-(4-fluorophenyl)-1-methylurea] gave an EC50 of 0.16 µM.
Molecule `CN(C(=O)Nc1ccc(F)c(Cl)c1)[C@H]1COCc2[nH]c(=O)c3cc(F)ccc3c21` (single isomer, unassigned) [Compound 40] has an EC50 of 1 µM.
`COc1nc2c(c3cc(F)c(F)cc13)[C@H](N(C)C(=O)Nc1ccc(F)c(C(F)F)c1)COC2` [Compound 234, (S)-1-(8,9-Difluoro-6-methoxy-1,4-dihydro-2H-pyrano[3,4-c]isoquinolin-1-yl)-3-(3-(difluoromethyl)-4-fluorophenyl)-1-methylurea] showed an EC50 of 0.05 µM.
Molecule `CN(C(=O)Nc1ccc(F)c(Cl)c1)C1COCc2[nH]c(=O)c3cc(F)c(F)cc3c21` (racemic) [Compound 24, 3-(3-Chloro-4-fluorophenyl)-1-(8,9-difluoro-6-oxo-1,4,5,6-tetrahydro-2H-pyrano[3,4-c]isoquinolin-1-yl)-1-methylurea] has an EC50 of 0.01 µM.
For `CN(C(=O)Nc1cc(F)c(F)c(F)c1)C1CCCc2[nH]c(=O)c3cc(F)ccc3c21` (centres unmarked) [Compound 33, 1-(8-Fluoro-6-oxo-1,2,3,4,5,6-hexahydrophenanthridin-1-yl)-1-methyl-3-(3,4,5-trifluorophenyl)urea], the EC50 was 0.1 µM.
`CC(=O)N1Cc2[nH]c(=O)c3cc(F)ccc3c2C(N(C)C(=O)Nc2ccc(F)c(Cl)c2)C1` (single isomer, unassigned) [Compound 157, 1-(3-Acetyl-8-fluoro-6-oxo-1,2,3,4,5,6-hexahydrobenzo[c][1,7]naphthyridin-1-yl)-3-(3-chloro-4-fluorophenyl)-1-methylurea] gave an EC50 of 1.2 µM.
With `CN(C(=O)Nc1ccc(F)c(Cl)c1)C1COCc2[nH]c(=O)c3cc(F)ccc3c21` (racemic) [Compound 23, 3-(3-Chloro-4-fluorophenyl)-1-(8-fluoro-6-oxo-1,4,5,6-tetrahydro-2H-pyrano[3,4-c]isoquinolin-1-yl)-1-methylurea] the EC50 was 0.02 µM.
For `CN(C(=O)Nc1ccc(F)c(C#N)c1)[C@@H]1COCc2[nH]c(=O)c3cc(F)c(F)cc3c21` (single isomer, unassigned) [Compound 70], the EC50 was 0.01 µM.

Same assay, conditions: Hepatitis B virus, HepDE19, 168 h, read-out: DE-19bDNA EC50 (uM), inhibition of rcDNA formation in HepDE19 cells (HepG2 derived), Tet-free medium, 7 day incubation, Quantigene 2.0 bDNA readout, top concentration 25 μM
`CN(C(=O)N1Cc2ccc(C(F)(F)F)cc2C1)[C@@H]1COCc2[nH]c(=O)c3cc(F)c(F)cc3c21` [Compound 230, (S)—N-(8,9-Difluoro-6-oxo-1,4,5,6-tetrahydro-2H-pyrano[3,4-c]isoquinolin-1-yl)-N-methyl-5-(trifluoromethyl)isoindoline-2-carboxamide] gave an EC50 of 24 µM.

Same assay, conditions: inhibition of rcDNA formation in HepDE19 cells (HepG2 derived), Tet-free medium, 7 day incubation, Quantigene 2.0 bDNA readout, top concentration 25 μM; read-out: DE-19bDNA EC50
`CN(C(=O)Nc1ccc(F)c(C#N)c1)C1C[S+]([O-])Cc2[nH]c(=O)c3cc(F)c(F)cc3c21` (single isomer, unassigned) [Compound 211, 3-(3-Cyano-4-fluorophenyl)-1-(8,9-difluoro-3-oxido-6-oxo-1,4,5,6-tetrahydro-2H-thiopyrano[3,4-c]isoquinolin-1-yl)-1-methylurea] showed an EC50 of 5.5 µM.
In the case of `CN(C(=O)Nc1ccc(F)c(C#N)c1)C1C[S+]([O-])Cc2[nH]c(=O)c3cc(F)c(F)cc3c21` (single isomer, unassigned) [Compound 213, 3-(3-Cyano-4-fluorophenyl)-1-(8,9-difluoro-3-oxido-6-oxo-1,4,5,6-tetrahydro-2H-thiopyrano[3,4-c]isoquinolin-1-yl)-1-methylurea], the EC50 is reported as 1 µM.
In the case of `CN(C(=O)Nc1ccc(F)c(Cl)c1)C1CSCc2[nH]c(=O)c3cc(F)ccc3c21` (single isomer, unassigned) [Compound 183, 3-(3-Chloro-4-fluorophenyl)-1-(8-fluoro-6-oxo-1,4,5,6-tetrahydro-2H-thiopyrano[3,4-c]isoquinolin-1-yl)-1-methylurea], the EC50 is reported as 1.1 µM.
Molecule `CN(C(=O)N1Cc2ccc(F)cc2C1)C1CNCc2[nH]c(=O)c3cc(F)c(F)cc3c21` (single isomer, unassigned) [Compound 225, N-(8,9-Difluoro-6-oxo-1,2,3,4,5,6-hexahydrobenzo[c][1,7]naphthyridin-1-yl)-5-fluoro-N-methylisoindoline-2-carboxamide] has an EC50 of 3.4 µM.
In the case of `CN(C(=O)Nc1ccc(F)c(F)c1)C1CCCc2[nH]c(=O)c3c(c21)COCC3` (single isomer, unassigned) [Compound 82, 3-(3,4-Difluorophenyl)-1-methyl-1-(5-oxo-3,4,5,6,7,8,9,10-octahydro-1H-pyrano[4,3-c]quinolin-10-yl)urea], the EC50 is reported as 7.3 µM.
In the case of `CN(C(=O)Nc1ccc(F)c(Cl)c1)C1CCCc2[nH]c(=O)c3c(c21)CCOC3` (single isomer, unassigned) [Compound 61, 3-(3-Chloro-4-fluorophenyl)-1-methyl-1-(5-oxo-1,4,5,6,7,8,9,10-octahydro-2H-pyrano[3,4-c]quinolin-10-yl)urea], the EC50 is reported as 5.1 µM.
`CN(C(=O)Nc1ccc(F)c(Cl)c1)C1C[S+]([O-])Cc2[nH]c(=O)c3cc(F)c(F)cc3c21` (single isomer, unassigned) [Compound 207, 3-(3-Chloro-4-fluorophenyl)-1-(8,9-difluoro-3-oxido-6-oxo-1,4,5,6-tetrahydro-2H-thiopyrano[3,4-c]isoquinolin-1-yl)-1-methylurea] showed an EC50 of 1.3 µM.
Molecule `CN(C(=O)Nc1ccc(F)c(Cl)c1)C1COCc2[nH]c(=O)c3ccccc3c21` (single isomer, unassigned) [Compound 36, 3-(3-Chloro-4-fluorophenyl)-1-methyl-1-(6-oxo-1,4,5,6-tetrahydro-2H-pyrano[3,4-c]isoquinolin-1-yl)urea] has an EC50 of 4.6 µM.
With `CN(C(=O)Nc1ccc(F)c(C#N)c1)C1CNCc2[nH]c(=O)c3cc(F)c(F)cc3c21` (single isomer, unassigned) [Compound 176, 3-(3-Cyano-4-fluorophenyl)-1-(8,9-difluoro-6-oxo-1,2,3,4,5,6-hexahydrobenzo[c][1,7]naphthyridin-1-yl)-1-methylurea] the EC50 was 0.05 µM.
`CN(C(=O)Nc1ccc(F)c(Cl)c1)C1CSCc2[nH]c(=O)c3cc(F)c(F)cc3c21` (single isomer, unassigned) [Compound 188, 3-(3-Chloro-4-fluorophenyl)-1-(8,9-difluoro-6-oxo-1,4,5,6-tetrahydro-2H-thiopyrano[3,4-c]isoquinolin-1-yl)-1-methylurea] gave an EC50 of 0.02 µM.
`CN(C(=O)N1Cc2ccc(Cl)cc2C1)C1CNCc2[nH]c(=O)c3cc(F)c(F)cc3c21` (single isomer, unassigned) [Compound 227, 5-Chloro-N-(8,9-difluoro-6-oxo-1,2,3,4,5,6-hexahydrobenzo[c][1,7]naphthyridin-1-yl)-N-methylisoindoline-2-carboxamide] was tested, and the EC50 was 12 µM.
`CN(C(=O)Nc1ccc(F)c(F)c1)C1COCc2[nH]c(=O)c3c(c21)CCOC3` (single isomer, unassigned) [Compound 94, 3-(3,4-Difluorophenyl)-1-methyl-1-(6-oxo-1,2,4,5,6,7,9,10-octahydrodipyrano[3,4-b:4′,3′-d]pyridin-1-yl)urea] was tested, and the EC50 was 0.74 µM.
Work on `CC(C)CN(C(=O)Nc1ccc(F)c(C#N)c1)C1COCc2[nH]c(=O)c3cc(F)c(F)cc3c21` (single isomer, unassigned) [Compound 121, 3-(3-Cyano-4-fluorophenyl)-1-(8,9-difluoro-6-oxo-1,4,5,6-tetrahydro-2H-pyrano[3,4-c]isoquinolin-1-yl)-1-isobutylurea] yielded an EC50 of 0.01 µM.
